Source: patent publication US8168628B2, “Conjugated psychotropic drugs and uses thereof” (Ramot at Tel-Aviv University Ltd., priority 2001, dated 2012)
Counter-ions that a name gives are not always drawn. Like-named read-outs stand apart in the source and are kept apart here.

Legend:
HT-29 = assay: Proliferation test, HT-29 cells; format: cell-based; details: Homo sapiens, linear regression of survival percentage
Experimental: (§1) Cell lines: Human prostate carcinoma (PC-3), human colon carcinoma (HT-29), murine melanoma (B-16) and its drug resistant subclone (B-16 MDR), mouse fibroblasts (3T3), myeloid leukemia (HL 60) and its drug resistant subclone (HL 60 MX2), endometrium cell line (MES SA) and its drug resistant subclone (MES DX5), jurkat T lymphoma and monocyte leukemia (U-937), were used in this study.
(§2) Proliferation of cancer and normal cells: Proliferation was measured by neutral red assay or by a fluorometric assay quantitating DNA content. In the neutral red assay, the neutral red is absorbed by lysosomes, thus causing coloring of living cells. Quantitative analysis is performed by colorimetric assay (ELISA reader at 550 nm). In the fluorometric assay, alamar blue is used as a redox indicator. Alamar blue fluorescence was measured at an excitation wavelength of 544 nm and an emission wavelength of […] (FLUOstar BMG Lab Technologies, Offenburg, Germany).
(§3) The cells were sub-cultured and the tested compounds were added thereto in increasing concentrations. The IC50 values were determined by linear regression of the survival percentage of the cells.

[1] = tested on: normal and transformed cells; assay: Proliferation tests, summary over the tested cell lines; format: cell-based; details: read-out: IC50 range, anti-proliferative activity
Experimental: as §2, §3

B16 MDR = assay: Proliferation test, B16 MDR cells; format: cell-based, murine; details: Mus musculus; linear regression of survival percentage
Experimental: as §1, §2, §3

Normal rat fibroblasts = assay: Proliferation test, normal rat fibroblasts; format: cell-based; details: Fibroblast, linear regression of survival percentage
Experimental: The primary cultures of rat fibroblasts were obtained from neonatal rats using known procedures.
as §2, §3

B16 = assay: Proliferation test, B16 melanoma cells; format: cell-based, murine; details: Mus musculus, B16; linear regression of survival percentage
Experimental: as §1, §2, §3

C6 rat glioma cells [2] = assay: DNA fragmentation in C6 rat glioma cells (propidium iodide flow cytometry); format: cell-based; details: Cisplatin 30 μM; perphenazine 25 and 50 μM; AN 168 25, 50 μM (FIG. 18)
Experimental: Apoptosis and DNA fragmentation: Fragmentation of cell nuclei was studied by flow cytometric analysis of propidium iodide-stained cells. This analysis was performed using a FACScan (Becton Dickinson, Mountain View, Calif.) equipped with an argon ion laser adjusted to an excitation wavelength of 480 nm and with a Doublet Discrimination Module (DDM). Lysis II (Becton Dickinson) software was used for data acquisition. Apoptotic nuclear changes were evaluated according to the criteria of Nicolletti et al..
The DNA fragmentation was determined by the propidium iodide flow cytometric method described hereinabove.

C6 rat glioma cells [3] = assay: Chemosensitization in C6 rat glioma cells; format: cell-based; details: Cisplatin 5-50 μM, neutral red (FIG. 17)
Experimental: Chemosensitization: The chemosensitizing effect of perphenazine and its chemical conjugate AN 168 was measured in vitro. Various concentrations of perphenazine or AN 168 were co-administered together with a chemotherapeutic agent to either C6 rat glioma cells or to Jurkat T lymphoma cells. Cells viability and/or DNA fragmentation following treatment with either the chemotherapeutic agent, perphenazine, AN 168, a combination of the chemotherapeutic agent and perphenazine or a combination of a chemotherapeutic agent with AN 168 were measured as described hereinabove.

HL 60 = assay: Proliferation test, HL 60 cells; format: cell-based; details: Homo sapiens, linear regression of survival percentage
Experimental: as §1, §2, §3

HL 60 MX2 (MDR) = assay: Proliferation test, HL 60 MX2 (MDR) cells; format: cell-based; details: Homo sapiens, HL60/MX2; linear regression of survival percentage
Experimental: as §1, §2, §3

3T3 = assay: Proliferation test, 3T3 fibroblasts; format: cell-based; details: Mus musculus, NIH3T3; linear regression of survival percentage
Experimental: as §1, §2, §3

rats [4] = assay: Catalepsy in rats, “wall” test; details: i.p.; for induced catalepsy, SAR studies: compared with perphenazine (FIG. 2); for time course of catalepsy: over a period of 7 hours (FIGS. 4a, 4b)
Experimental: (§4) Animals: Young adult male rats (150-230 grams) were purchased from Harlan (Israel). Animals were divided 2-5/cage and housed in controlled conditions in the animal room for a week prior to the experiments. The experiments were conducted with naive animals, in a double blind procedure. In each experiment various treatment groups (about 5-10 animals each) were tested.
(§5) Catalepsy in rats: The manifestation of the extrapyramidal adverse effects induced by typical neuroleptics was evaluated by the appearance of stereotypic cataleptic behavior in rats following the neuroleptic treatment. Catalepsy was determined by two methods: (i) by measuring the time it took an animal hanging on a cage wall to move its hind legs and reach a flat surface (the “wall” test); and (ii) rats were placed on a flat surface with their anterior limbs leaning on a flat bar (5.5 cm height) resembling a piano playing position. Catalepsy was determined by the time it took an animal to descend and reach the flat surface (the “piano” test). The maximum time of follow up was 2 minutes and these measurements were performed hourly and individually for each animal. These tests provide an assessment of central dopamine (DA) blocking activity and are acceptable criteria for extrapyramidal symptoms induced by anti-psychotic drugs [10].
(§6) A control animals group was treated with the vehicle (lactic acid) only.

[5] = Stability upon prolonged storage (NMR); format: physicochemical; details: about 3 months storage; NMR spectroscopy
rats [6] = assay: Behavioral criteria: sedation and mobility score in rats; details: i.p., 5 mg/kg perphenazine, 7.5 mg/kg fluphenazine or equimolar conjugate, score 0-3
Experimental: The effect of the administration of the tested compound on animals behavior was measured by evaluating the degree of animal sedation and mobility following the treatment described hereinabove, using a score of from 0 to 3. A score of 0 represents active and mobile animals, 1 represents calm and mobile animals, 2 represents calm and immobile animals and 3 represents completely ataxic and non-alert animals.

Jurkat T lymphoma cells = assay: Proliferation / viability test, Jurkat T lymphoma cells; format: cell-based; details: Homo sapiens, linear regression of survival percentage, read-out: IC50, JURKAT
Experimental: as §1, §2, §3

prolactin = assay: Prolactin blood level in rats (enzyme immunometric assay); format: in vivo, rat; details: i.p.; measured at 0, 60 and 120 min after treatment
Text: Prolactin secretion: Typical neuroleptics induce hyperprolactinemia, which is frequently associated with gallactorehea and impaired gonadal and sexual function. The measurement of the circulatory plasma prolactin level was therefore used as a sensitive biochemical marker for the psychotropic activity of the known neuroleptics and the chemical conjugates of the present invention, following intraperitoneal or oral administration thereof. Thus, blood was collected from the punctured eye orbital of rats under ether anesthesia and the assay was performed using Millennia, rat prolactin enzyme immunometric assay-kit (DPC, USA).

U-937 = assay: Proliferation test, U-937 cells; format: cell-based; details: Homo sapiens, linear regression of survival percentage
Experimental: as §1, §2, §3

MES SA DX5 (MDR) = assay: Proliferation test, MES SA DX5 (MDR) cells; format: cell-based; details: Homo sapiens, linear regression of survival percentage
Experimental: as §1, §2, §3

MES SA = assay: Proliferation test, MES SA cells; format: cell-based; details: Homo sapiens, linear regression of survival percentage
Experimental: as §1, §2, §3

PC-3 = assay: Proliferation test, PC-3 cells; format: cell-based; details: Homo sapiens, linear regression of survival percentage
Experimental: as §1, §2, §3

rats [7] = details: male, rat, in vivo, ip
Experimental: as §4, §5, §6

rats [8] = assay: D-Amphetamine-induced hyperactivity in rats; format: in vivo, rat; details: GABA alone, 5 mg/kg i.p. (FIGS. 22-25)
Experimental: D-Amphetamine-induced hyperactivity in rats: The efficacy of the chemical conjugates of the present invention was studied using the D-amphetamine-induced hyperactivity and motility model, which is known as one of the most established animal models for schizophrenia.
Naïve Wistar male rats were placed in individual boxes. In each experiment 4 rats were studied. Perphenazine or equimolar doses of its chemical conjugate AN-168 were administered intraperitoneally (ip) to the rats 30 minutes prior to intraperitoneal administration of amphetamine (2.5 mg/kg), or 90 minutes prior to oral administration of amphetamine (2.5 mg/kg). The animals locomotor activity was assessed using two parameters: climbing attempts of the animal on the barrel walls (as big movements) and head movement of the animal (as small movements). Assessment was recorded every 15 minutes for two hours. Each animal was tested at each time point for 120 seconds.
The climbing behavior of the rats in each group was measured as described hereinabove.

[9] = 5 mg/kg perphenazine and equimolar conjugates
[10] = 5 mg/kg perphenazine, 7.5 mg/kg fluphenazine, equimolar conjugates, sum 0-420 min, normalized to parent drug (FIG. 3a)

With `CCCC(=O)O` [BA, butyric acid, reference compound] the IC50 (HT-29) was 7170 ± 2030 µM, the IC50 [1] was 1 to 8 mM and the IC50 (B16 MDR) was 8 ± 0.546 mM. For the same compound, the IC50 (Normal rat fibroblasts) was 5.54 mM and the IC50 (B16) was 1300 ± 113 µM.

In the case of `N.N.[Cl][Pt][Cl]` [Cisplatin, reference compound], the DNA fragmentation (C6 rat glioma cells [2]) is reported as “no effect of DNA fragmentation” and the “cells viability, Cisplatin alone” value (C6 rat glioma cells [3]) is reported as “completely resistant”.

With `CCC(=O)OCCN1CCN(CCCN2c3ccccc3Sc3ccc(C(F)(F)F)cc32)CC1` [AN-179, Fluphenazine Propionate] the IC50 (HL 60) was 18.2 µM and the IC50 (HL 60 MX2 (MDR)) was 21.4 µM.

`CCC(=O)OCCN1CCN(CCCN2c3ccccc3Sc3ccc(Cl)cc32)CC1` [AN-177, Perphenazine Propionate] showed an IC50 (HT-29) of 25.8 µM, an IC50 (HL 60) of 15.1 µM and an IC50 (HL 60 MX2 (MDR)) of 17.6 µM. The IC50 (3T3) was 24.6 µM and the “induced catalepsy, SAR studies” value (rats [4]; [9]) was “significant reduction of the induced catalepsy”.

With `NCCCC(=O)OCCN1CCN(CCCN2c3ccccc3Sc3ccc(C(F)(F)F)cc32)CC1` [AN-187, fluphenazine 4-Aminobutyrate Trihydrochloride] the “stability upon prolonged storage” value [5] was “does not tend to decompose upon a prolonged storage”, the IC50 (HL 60) was 18.6 µM and the IC50 (HL 60 MX2 (MDR)) was 17.1 µM. The “sedation and mobility score, 30 min” value (rats [6]) was 1, the “sedation and mobility score, 60 min” value (rats [6]) was 2 and the “sedation and mobility score, 90 min” value (rats [6]) was 2. The “sedation and mobility score, 120 min” value (rats [6]) was 2, the “sedation and mobility score, 180 min” value (rats [6]) was 1 and the “sedation and mobility score, 240 min” value (rats [6]) was 1. For the same compound, the IC50 (Jurkat T lymphoma cells) was 10.3 µM, the “time at which prolactin blood level peaked” value (prolactin) was 60 min and the IC50 (U-937) was 18.9 µM. The IC50 (MES SA DX5 (MDR)) was 9.47 µM, the total catalepsy (rats [4]; [10]) was “reduced it considerably” and the “catalepsy at the end of the 7-hours period” value (rats [4]; equimolar to 7.5 mg/kg fluphenazine (FIG. 4b)) was “abolished at the end of the 7-hours period”. For the same compound, the “time course of catalepsy” value (rats [4]) was “lower catalepsy” and the IC50 (MES SA) was 14.4 µM.

`O=C(CCCc1ccccc1)OCCN1CCN(CCCN2c3ccccc3Sc3ccc(Cl)cc32)CC1` [AN-130, Perphenazine 4-Phenylbutyrate] gave an IC50 (HT-29) of 17.3 ± 3.07 µM, an IC50 (PC-3) of 52.9 ± 28.7 µM and an IC50 (B16 MDR) of 0.058 mM. The “time at which prolactin blood level peaked” value (prolactin) was 60 min, the IC50 (Normal rat fibroblasts) was 0.0419 ± 0.0168 mM and the IC50 (B16) was 36.5 ± 8.1 µM. For the same compound, the total catalepsy (rats [4]; 5 mg/kg perphenazine and equimolar conjugates, sum of determinations at 0, 60, 120 min (FIG. 1a)) was “catalepsy was induced”.

For `OCCN1CCN(CCCN2c3ccccc3Sc3ccc(C(F)(F)F)cc32)CC1` [Fluphenazine, fluphenazine, reference compound], the “time at which prolactin blood level peaked” value (prolactin) was 60 min and the “time course of catalepsy” value (rats [7]) was “displayed catalepsy during the measured 7 hours”.

In the case of `CCCCC(=O)OCCN1CCN(CCCN2c3ccccc3Sc3ccc(C(F)(F)F)cc32)CC1` [AN-181, Fluphenazine Valerate], the IC50 (HL 60) is reported as 14.8 µM and the IC50 (HL 60 MX2 (MDR)) is reported as 16.7 µM.

For `NCCCC(=O)O` [GABA, γ-aminobutyric acid, reference compound], the “effect on amphetamine-induced climbing and head movement” value (rats [8]) was “did not modify the effect of amphetamine”.

In the case of `CCCC(=O)OCCN1CCN(CCCN2c3ccccc3Sc3ccc(C(F)(F)F)cc32)CC1` [AN-180, Fluphenazine Butyrate], the IC50 (HL 60) is reported as 19 µM, the IC50 (HL 60 MX2 (MDR)) is reported as 18.8 µM and the “sedation and mobility score, 30 min” value (rats [6]) is reported as 1. The “sedation and mobility score, 60 min” value (rats [6]) was 2, the “sedation and mobility score, 90 min” value (rats [6]) was 3 and the “sedation and mobility score, 120 min” value (rats [6]) was 2. For the same compound, the “sedation and mobility score, 180 min” value (rats [6]) was 1, the “sedation and mobility score, 240 min” value (rats [6]) was 1 and the IC50 (Jurkat T lymphoma cells) was 10.4 µM. The IC50 (U-937) was 12.2 µM, the IC50 (MES SA DX5 (MDR)) was 12.7 µM and the total catalepsy (rats [4]; [10]) was “reduced catalepsy significantly”. The “time course of catalepsy” value (rats [4]) was “lower catalepsy” and the IC50 (MES SA) was 12 µM.

With `CCCCC(=O)OCCN1CCN(CCCN2c3ccccc3Sc3ccc(Cl)cc32)CC1` [AN-178, Perphenazine Valerate] the IC50 (HT-29) was 11.5 µM, the IC50 (3T3) was 18.6 µM and the “induced catalepsy, SAR studies” value (rats [4]; [9]) was “significant reduction of the induced catalepsy”.

Work on `O=C(O)CCCc1ccccc1` [PBA, 4-phenylbutyric acid] yielded an IC50 [1] of 2 to 12 mM.
